Data taken from patent publication US20230085307A1, “PYRIDAZINONE COMPOUND AND HERBICIDE” (NISSAN CHEMICAL CORPORATION, priority 2019, published 2023).

Legend:
[1] = tested on: rice flat sedge; assay: Test Example 3: herbicidal effect by foliage application, Wagner pot (Table 18, symbol E); assay type: in vivo, rice flat sedge (Cyperus iria); conditions: amount of applied herbicide 320 g/ha
Summary of the method: (§1)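 Plants were sown in alluvial soil held under 0.1–0.5 cm standing water and grown 14 days in a greenhouse at 25–30 °C. An emulsifiable formulation, water-diluted to the set dose, was then sprayed onto the foliage, and effects were scored three weeks later using previously defined criteria.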

[2] = tested on: velvetleaf; assay: Test Example 5: herbicidal effect by foliage application, plastic box (Table 20, symbol M); assay type: in vivo, velvetleaf (Abutilon theophrasti); conditions: foliage application, 320 g/ha
Summary of the method: (§2)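 Plants sown in sterilized diluvial soil and grown 14 days in a greenhouse at 25° C to 30° C, then sprayed on the foliage with the compound's emulsion diluted in water to a predetermined herbicide amount. Injury to weeds and crops scored three weeks after application on a visual rating scale.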

[3] = tested on: barnyard grass; assay: Test Example 5: herbicidal effect by foliage application, plastic box (Table 20, symbol H); assay type: in vivo, barnyard grass (Echinochloa crus-galli); conditions: foliage application, 320 g/ha
Summary of the method: as §2

[4] = tested on: wild oat; assay: Test Example 5: herbicidal effect by foliage application, plastic box (Table 20, symbol I); assay type: in vivo, wild oat (Avena fatua); conditions: foliage application, 320 g/ha
Summary of the method: as §2

[5] = tested on: barnyard grass; assay: Test Example 4: herbicidal effect by soil treatment (Table 19, symbol H); assay type: in vivo, barnyard grass (Echinochloa crus-galli); conditions: amount of applied herbicide 320 g/ha
Summary of the method: (§3)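 Three weeks of greenhouse growth at 25° C. to 30° C. followed a uniform surface spray of water-diluted emulsion at a predetermined herbicide amount. Seeds had been sown beforehand under about 1.5 cm of sterilized diluvial soil. Grading followed criteria set out in an earlier test.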

[6] = tested on: persian speedwell; assay: Test Example 5: herbicidal effect by foliage application, plastic box (Table 20, symbol R); assay type: in vivo, Persian speedwell (Veronica persica); conditions: foliage application, 320 g/ha
Summary of the method: as §2

[7] = tested on: southern crabgrass; assay: Test Example 4: herbicidal effect by soil treatment (Table 19, symbol F); assay type: in vivo, southern crabgrass (Digitaria ciliaris); conditions: amount of applied herbicide 320 g/ha
Summary of the method: as §3

[8] = tested on: windgrass; assay: Test Example 4: herbicidal effect by soil treatment (Table 19, symbol L); assay type: in vivo, windgrass (Apera spica-venti); conditions: amount of applied herbicide 320 g/ha
Summary of the method: as §3

[9] = tested on: southern crabgrass; assay: Test Example 5: herbicidal effect by foliage application, plastic box (Table 20, symbol F); assay type: in vivo, southern crabgrass (Digitaria ciliaris); conditions: foliage application, 320 g/ha
Summary of the method: as §2

[10] = tested on: Italian ryegrass; assay: Test Example 5: herbicidal effect by foliage application, plastic box (Table 20, symbol K); assay type: in vivo, Italian ryegrass (Lolium multiflorum); conditions: foliage application, 320 g/ha
Summary of the method: as §2

[11] = tested on: lambsquarters; assay: Test Example 5: herbicidal effect by foliage application, plastic box (Table 20, symbol O); assay type: in vivo, lambsquarters (Chenopodium album); conditions: foliage application, 320 g/ha
Summary of the method: as §2

[12] = tested on: false cleavers; assay: Test Example 5: herbicidal effect by foliage application, plastic box (Table 20, symbol Q); assay type: in vivo, false cleavers (Galium spurium); conditions: foliage application, 320 g/ha
Summary of the method: as §2

[13] = tested on: barnyard grass; assay: Test Example 3: herbicidal effect by foliage application, Wagner pot (Table 18, symbol H); assay type: in vivo, barnyard grass (Echinochloa crus-galli); conditions: amount of applied herbicide 320 g/ha
Summary of the method: as §1

[14] = tested on: chickweed; assay: Test Example 5: herbicidal effect by foliage application, plastic box (Table 20, symbol P); assay type: in vivo, common chickweed (Stellaria media); conditions: foliage application, 320 g/ha
Summary of the method: as §2

[15] = tested on: green foxtail; assay: Test Example 4: herbicidal effect by soil treatment (Table 19, symbol G); assay type: in vivo, green foxtail (Setaria viridis); conditions: amount of applied herbicide 320 g/ha
Summary of the method: as §3

[16] = tested on: persian speedwell; assay: Test Example 4: herbicidal effect by soil treatment (Table 19, symbol R); assay type: in vivo, Persian speedwell (Veronica persica); conditions: amount of applied herbicide 320 g/ha
Summary of the method: as §3

[17] = tested on: redroot pigweed; assay: Test Example 5: herbicidal effect by foliage application, plastic box (Table 20, symbol N); assay type: in vivo, redroot pigweed (Amaranthus retroflexus); conditions: foliage application, 320 g/ha
Summary of the method: as §2

[18] = tested on: Chinese sprangletop; assay: Test Example 3: herbicidal effect by foliage application, Wagner pot (Table 18, symbol D); assay type: in vivo, chinese sprangletop (Leptochloa chinensis); conditions: amount of applied herbicide 320 g/ha
Summary of the method: as §1

[19] = tested on: green foxtail; assay: Test Example 5: herbicidal effect by foliage application, plastic box (Table 20, symbol G); assay type: in vivo, green foxtail (Setaria viridis); conditions: foliage application, 320 g/ha
Summary of the method: as §2

[20] = tested on: false cleavers; assay: Test Example 4: herbicidal effect by soil treatment (Table 19, symbol Q); assay type: in vivo, false cleavers (Galium spurium); conditions: amount of applied herbicide 320 g/ha
Summary of the method: as §3

[21] = tested on: Italian ryegrass; assay: Test Example 4: herbicidal effect by soil treatment (Table 19, symbol K); assay type: in vivo, Italian ryegrass (Lolium multiflorum); conditions: amount of applied herbicide 320 g/ha
Summary of the method: as §3

[22] = tested on: blackgrass; assay: Test Example 4: herbicidal effect by soil treatment (Table 19, symbol J); assay type: in vivo, blackgrass (Alopecurus myosuroides); conditions: amount of applied herbicide 320 g/ha
Summary of the method: as §3

[23] = tested on: velvetleaf; assay: Test Example 4: herbicidal effect by soil treatment (Table 19, symbol M); assay type: in vivo, velvetleaf (Abutilon theophrasti); conditions: amount of applied herbicide 320 g/ha
Summary of the method: as §3

[24] = tested on: windgrass; assay: Test Example 5: herbicidal effect by foliage application, plastic box (Table 20, symbol L); assay type: in vivo, windgrass (Apera spica-venti); conditions: foliage application, 320 g/ha
Summary of the method: as §2

[25] = tested on: blackgrass; assay: Test Example 5: herbicidal effect by foliage application, plastic box (Table 20, symbol J); assay type: in vivo, blackgrass (Alopecurus myosuroides); conditions: foliage application, 320 g/ha
Summary of the method: as §2

[26] = tested on: wild oat; assay: Test Example 4: herbicidal effect by soil treatment (Table 19, symbol I); assay type: in vivo, wild oat (Avena fatua); conditions: amount of applied herbicide 320 g/ha
Summary of the method: as §3

[27] = tested on: lambsquarters; assay: Test Example 4: herbicidal effect by soil treatment (Table 19, symbol O); assay type: in vivo, lambsquarters (Chenopodium album); conditions: amount of applied herbicide 320 g/ha
Summary of the method: as §3

[28] = tested on: redroot pigweed; assay: Test Example 4: herbicidal effect by soil treatment (Table 19, symbol N); assay type: in vivo, redroot pigweed (Amaranthus retroflexus); conditions: amount of applied herbicide 320 g/ha
Summary of the method: as §3

[29] = tested on: chickweed; assay: Test Example 4: herbicidal effect by soil treatment (Table 19, symbol P); assay type: in vivo, common chickweed (Stellaria media); conditions: amount of applied herbicide 320 g/ha
Summary of the method: as §3

[30] = evaluated three weeks after application

For `CCOc1cc(F)ccc1-c1sc2ccc(Cl)cc2c1-c1c(O)c(C)nn(C)c1=O` [2-115], the “herbicidal effect on E: rice flat sedge” value [1] was 3 (Herbicidal rate of 40% or more and less than 70%), the “herbicidal effect on M: velvetleaf” value [2, 30] was 5 (Herbicidal rate of 90% or more (almost completely withered)) and the “herbicidal effect on H: barnyard grass” value [3, 30] was 5 (Herbicidal rate of 90% or more (almost completely withered)). The “herbicidal effect on I: wild oat” value [4, 30] was 1 (Herbicidal rate of 5% or more and less than 20%), the “H: barnyard grass, herbicidal effect rating” value [5] was 3 (Herbicidal rate of 40% or more and less than 70%) and the “herbicidal effect on R: persian speedwell” value [6, 30] was 5 (Herbicidal rate of 90% or more (almost completely withered)). The “F: southern crabgrass, herbicidal effect rating” value [7] was 3 (Herbicidal rate of 40% or more and less than 70%), the “L: windgrass, herbicidal effect rating” value [8] was 0 (Herbicidal rate of 5% or less (almost no effect)) and the “herbicidal effect on F: southern crabgrass” value [9, 30] was 4 (Herbicidal rate of 70% or more and less than 90%). For the same compound, the “herbicidal effect on K: Italian ryegrass” value [10, 30] was 0 (Herbicidal rate of 5% or less (almost no effect)), the “herbicidal effect on O: lambsquarters” value [11, 30] was 3 (Herbicidal rate of 40% or more and less than 70%) and the “herbicidal effect on Q: false cleavers” value [12, 30] was 5 (Herbicidal rate of 90% or more (almost completely withered)). For the same compound, the “herbicidal effect on H: barnyard grass” value [13] was 5 (Herbicidal rate of 90% or more (almost completely withered)), the “herbicidal effect on P: chickweed” value [14, 30] was 5 (Herbicidal rate of 90% or more (almost completely withered)) and the “G: green foxtail, herbicidal effect rating” value [15] was 2 (Herbicidal rate of 20% or more and less than 40%). For the same compound, the “R: persian speedwell, herbicidal effect rating” value [16] was 4 (Herbicidal rate of 70% or more and less than 90%), the “herbicidal effect on N: redroot pigweed” value [17, 30] was 5 (Herbicidal rate of 90% or more (almost completely withered)) and the “herbicidal effect on D: Chinese sprangletop” value [18] was 1 (Herbicidal rate of 5% or more and less than 20%). For the same compound, the “herbicidal effect on G: green foxtail” value [19, 30] was 3 (Herbicidal rate of 40% or more and less than 70%), the “Q: false cleavers, herbicidal effect rating” value [20] was 4 (Herbicidal rate of 70% or more and less than 90%) and the “K: Italian ryegrass, herbicidal effect rating” value [21] was 0 (Herbicidal rate of 5% or less (almost no effect)). For the same compound, the “J: blackgrass, herbicidal effect rating” value [22] was 4 (Herbicidal rate of 70% or more and less than 90%), the “M: velvetleaf, herbicidal effect rating” value [23] was 1 (Herbicidal rate of 5% or more and less than 20%) and the “herbicidal effect on L: windgrass” value [24, 30] was 3 (Herbicidal rate of 40% or more and less than 70%). For the same compound, the “herbicidal effect on J: blackgrass” value [25, 30] was 3 (Herbicidal rate of 40% or more and less than 70%), the “I: wild oat, herbicidal effect rating” value [26] was 0 (Herbicidal rate of 5% or less (almost no effect)) and the “O: lambsquarters, herbicidal effect rating” value [27] was 3 (Herbicidal rate of 40% or more and less than 70%). The “N: redroot pigweed, herbicidal effect rating” value [28] was 5 (Herbicidal rate of 90% or more (almost completely withered)) and the “P: chickweed, herbicidal effect rating” value [29] was 3 (Herbicidal rate of 40% or more and less than 70%).

With `CCCC(=O)Oc1c(C)nn(C)c(=O)c1-c1c(-c2ccsc2)sc2ccccc12` [1-084] the “herbicidal effect grade, M: velvetleaf” value ([2]; three weeks after application) was 0 (Herbicidal rate of 5% or less (almost no effect)), the “herbicidal effect grade, H: barnyard grass” value ([3]; three weeks after application) was 0 (Herbicidal rate of 5% or less (almost no effect)) and the “herbicidal effect grade, I: wild oat” value ([4]; three weeks after application) was 0 (Herbicidal rate of 5% or less (almost no effect)). The “herbicidal effect rating, H: barnyard grass” value [5] was 1 (Herbicidal rate of 5% or more and less than 20%), the “herbicidal effect grade, R: persian speedwell” value ([6]; three weeks after application) was 0 (Herbicidal rate of 5% or less (almost no effect)) and the “herbicidal effect rating, F: southern crabgrass” value [7] was 1 (Herbicidal rate of 5% or more and less than 20%). The “herbicidal effect rating, L: windgrass” value [8] was 0 (Herbicidal rate of 5% or less (almost no effect)), the “herbicidal effect grade, F: southern crabgrass” value ([9]; three weeks after application) was 0 (Herbicidal rate of 5% or less (almost no effect)) and the “herbicidal effect grade, K: Italian ryegrass” value ([10]; three weeks after application) was 1 (Herbicidal rate of 5% or more and less than 20%). The “herbicidal effect grade, O: lambsquarters” value ([11]; three weeks after application) was 0 (Herbicidal rate of 5% or less (almost no effect)), the “herbicidal effect grade, Q: false cleavers” value ([12]; three weeks after application) was 0 (Herbicidal rate of 5% or less (almost no effect)) and the “herbicidal effect grade, P: chickweed” value ([14]; three weeks after application) was 5 (Herbicidal rate of 90% or more (almost completely withered)). For the same compound, the “herbicidal effect rating, G: green foxtail” value [15] was 2 (Herbicidal rate of 20% or more and less than 40%), the “herbicidal effect rating, R: persian speedwell” value [16] was 0 (Herbicidal rate of 5% or less (almost no effect)) and the “herbicidal effect grade, N: redroot pigweed” value ([17]; three weeks after application) was 0 (Herbicidal rate of 5% or less (almost no effect)). For the same compound, the “herbicidal effect grade, G: green foxtail” value ([19]; three weeks after application) was 0 (Herbicidal rate of 5% or less (almost no effect)), the “herbicidal effect rating, Q: false cleavers” value [20] was 0 (Herbicidal rate of 5% or less (almost no effect)) and the “herbicidal effect rating, K: Italian ryegrass” value [21] was 0 (Herbicidal rate of 5% or less (almost no effect)). The “herbicidal effect rating, J: blackgrass” value [22] was 0 (Herbicidal rate of 5% or less (almost no effect)), the “herbicidal effect rating, M: velvetleaf” value [23] was 0 (Herbicidal rate of 5% or less (almost no effect)) and the “herbicidal effect grade, L: windgrass” value ([24]; three weeks after application) was 0 (Herbicidal rate of 5% or less (almost no effect)). For the same compound, the “herbicidal effect grade, J: blackgrass” value ([25]; three weeks after application) was 0 (Herbicidal rate of 5% or less (almost no effect)), the “herbicidal effect rating, I: wild oat” value [26] was 0 (Herbicidal rate of 5% or less (almost no effect)) and the “herbicidal effect rating, O: lambsquarters” value [27] was 0 (Herbicidal rate of 5% or less (almost no effect)). For the same compound, the “herbicidal effect rating, N: redroot pigweed” value [28] was 0 (Herbicidal rate of 5% or less (almost no effect)) and the “herbicidal effect rating, P: chickweed” value [29] was 1 (Herbicidal rate of 5% or more and less than 20%).
